The values below come from ChEMBL document CHEMBL1201862, “PubChem BioAssay data set” (2004).

In general, EC50 refers to the concentration that produces a half-maximal response. One may read the CC50 as the concentration at which the toxic effect on the cells reaches its halfway point. By IC50 is commonly meant the concentration at which inhibition is half-maximal. As usually defined, the AC50 is the midpoint of the concentration-response curve, whichever way the signal moves.

The nature of test [1]: luciferase reporter signal suppression in cells – H4 neuroglioma cells, luminescence, dose response (AID 1990). In kind it is functional, cell-based. (In general: A reporter such as luciferase makes a cellular process visible.)
Test [2] deals with Streptococcus sp. 'group A'. The test is described as follows: Streptococcus pyogenes SK(-)GAS viability under kanamycin – luminescence, BacTiterGlo, confirmation, counter-screen for streptokinase expression inhibitor project, dose response (AID 1900). In kind it is functional, organism-based. (The purpose of a counterscreen is to sort out artefacts and off-target activity.)
Test [3] in a line: Luminescence Cell-Based Dose Response HTS to Identify Inhibitors of 5'UTR Stem-Loop Driven Prion Protein mRNA Translation in H4 Neuroglioblastoma Cells. [Related pubchem assays: 1827 (Project Summary), 1813 (Primary HTS)]. In kind it is functional.
The nature of test [4]: alpha-synuclein stem-loop luciferase translation blockers – H4 neuroglioma cells, luminescence, confirmation (AID 1988). In kind it is functional, cell-based.
The subject of another test is Streptococcus. In words: GAS UMAA2166 growth inhibition – luminescence, BacTiterGlo, counter-screen for streptokinase expression inhibitor project, dose response (AID 1915).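 Also: potency for reduction of bacterial viability or growth.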 In kind it is functional, organism-based.
Test [5] in a line: THP-1 cell cytotoxicity, dose response, cytotoxicity control for non-replicating M. tuberculosis project (AID 489025). In kind it is functional.
Test [6] is described as follows: HepG2 cell cytotoxicity, dose response, cytotoxicity control for non-replicating M. tuberculosis project (AID 489018). In kind it is functional. As to conditions: Mycobacterium tuberculosis.
The nature of test [7]: Vero E6 cell cytotoxicity, dose response, cytotoxicity control for non-replicating M. tuberculosis project, secondary assay (AID 492998). In kind it is functional, VeroE6. To be noted: Vero C1008.
A short description of the next test: cells. In kind it is functional.
In test [8] the target is Heat shock protein HSP 90-alpha (Homo sapiens, UniProt P07900). In kind it is functional, organism-based.
Test [9] addresses G-protein coupled receptor 55 (Homo sapiens, UniProt Q9Y2T6). In words: inhibition of LPI-stimulated GPR55 beta-arrestin translocation – imaging, U2OS, beta-arrestin-GFP, LPI agonist, primary screen (AID 2013).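 Also: antagonist potency measured as reduced agonist-driven arrestin aggregation.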 In kind it is functional.
For the next test, the target named is T1, Streptokinase A (Streptococcus pyogenes serotype M1, UniProt P10520).
T1 sequence (P10520 whole entry): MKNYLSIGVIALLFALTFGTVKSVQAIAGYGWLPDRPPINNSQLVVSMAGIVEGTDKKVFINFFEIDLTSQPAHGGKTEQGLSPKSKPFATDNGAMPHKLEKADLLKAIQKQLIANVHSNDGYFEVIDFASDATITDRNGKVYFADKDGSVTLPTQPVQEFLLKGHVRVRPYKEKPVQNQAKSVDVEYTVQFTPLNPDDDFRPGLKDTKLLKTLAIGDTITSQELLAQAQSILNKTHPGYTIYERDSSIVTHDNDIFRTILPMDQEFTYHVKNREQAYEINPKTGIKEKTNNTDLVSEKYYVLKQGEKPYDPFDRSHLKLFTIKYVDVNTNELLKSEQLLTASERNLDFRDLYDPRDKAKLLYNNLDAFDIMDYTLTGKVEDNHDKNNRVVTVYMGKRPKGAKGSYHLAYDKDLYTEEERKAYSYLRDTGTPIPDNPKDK
In words: viability-normalized secreted streptokinase activity reduction – plasminogen activation absorbance, OD405, dose response (AID 1914).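 Also: secreted streptokinase activity via plasminogen activation per viability signal from cell pellet.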 In kind it is functional, Streptococcus pyogenes M1 GAS.

The test system of a further test is H9c2. In words: cells. In kind it is functional, cell-based. To be noted: Rattus norvegicus, H9c2, Myocardium.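 Also: confirmatory concentration-response retest of ultra-high-throughput screening hits for modulation of myocardial damage; cell death induced by hydrogen peroxide oxidative stress; compound pretreatment for 60 min then peroxide exposure for 2 h; potency is for protecting the cells against peroxide damage rather than for killing them.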
Test [10] in a line: Trypanosoma cruzi growth suppression in host cells – NIH3T3 host cells, beta-gal luminescence, confirmation (AID 2044).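 Also: intracellular parasites grown in NIH/3T3 mouse fibroblasts as host cells; luminescent beta-galactosidase reporter signal from transgenic T. cruzi replicating inside host cells; inhibitors lower the luminescence signal.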 In kind it is functional, cell-based.
A short description of test [11]: NIH3T3 cell viability loss – ATP luminescence, mouse fibroblasts, counter-screen, dose response (AID 2010).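 Also: cells exposed to compound for about 90 hours before reading.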 In kind it is functional, cell-based.
The next test has as its target T2, Hexokinase (Trypanosoma brucei, UniProt Q38C41).
T2 sequence (Q38C41 whole entry): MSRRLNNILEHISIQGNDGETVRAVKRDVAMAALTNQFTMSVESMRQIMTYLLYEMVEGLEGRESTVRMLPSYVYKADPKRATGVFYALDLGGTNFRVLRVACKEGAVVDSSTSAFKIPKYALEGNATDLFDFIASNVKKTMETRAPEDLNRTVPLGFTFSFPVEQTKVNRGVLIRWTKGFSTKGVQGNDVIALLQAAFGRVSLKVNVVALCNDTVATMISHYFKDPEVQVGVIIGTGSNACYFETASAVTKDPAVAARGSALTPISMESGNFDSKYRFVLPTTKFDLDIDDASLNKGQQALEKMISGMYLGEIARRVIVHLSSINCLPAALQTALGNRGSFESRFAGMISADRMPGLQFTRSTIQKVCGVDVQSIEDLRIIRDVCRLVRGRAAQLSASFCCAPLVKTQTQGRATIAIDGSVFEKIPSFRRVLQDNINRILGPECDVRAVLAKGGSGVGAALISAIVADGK
In words: Confirmation assay for inhibitors of Trypanosoma brucei hexokinase 1-Analogue-first series. [Related pubchem assays (depositor defined):AID1430, AID1632, AID2516, AID2560, AID2579, AID2600, AID449725, AID492951]. In kind it is functional.

Test [12] deals with T3, Alkaline phosphatase, tissue-nonspecific isozyme (Homo sapiens, UniProt P05186).
T3 sequence (P05186 whole entry): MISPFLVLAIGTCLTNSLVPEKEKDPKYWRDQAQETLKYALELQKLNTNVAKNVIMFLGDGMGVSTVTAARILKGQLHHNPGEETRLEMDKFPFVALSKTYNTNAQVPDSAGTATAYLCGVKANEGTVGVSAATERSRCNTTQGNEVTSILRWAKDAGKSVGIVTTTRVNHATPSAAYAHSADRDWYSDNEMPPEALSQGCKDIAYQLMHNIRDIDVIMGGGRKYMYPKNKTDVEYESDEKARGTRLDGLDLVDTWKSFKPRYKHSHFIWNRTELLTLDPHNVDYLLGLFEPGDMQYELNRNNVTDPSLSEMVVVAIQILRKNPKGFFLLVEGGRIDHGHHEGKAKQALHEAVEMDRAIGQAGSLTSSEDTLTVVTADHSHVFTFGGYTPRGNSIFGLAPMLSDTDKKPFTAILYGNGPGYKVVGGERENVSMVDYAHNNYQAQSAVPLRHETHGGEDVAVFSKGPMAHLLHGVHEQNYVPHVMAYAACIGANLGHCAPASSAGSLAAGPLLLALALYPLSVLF
In words: potency against alkaline phosphatase TNAP – biochemical, luminescent, dose response, SAR follow-up (AID 1056).

For the next test, the target named is T4, Hexokinase HKDC1 (Homo sapiens, UniProt Q2TB90).
T4 sequence (Q2TB90 whole entry): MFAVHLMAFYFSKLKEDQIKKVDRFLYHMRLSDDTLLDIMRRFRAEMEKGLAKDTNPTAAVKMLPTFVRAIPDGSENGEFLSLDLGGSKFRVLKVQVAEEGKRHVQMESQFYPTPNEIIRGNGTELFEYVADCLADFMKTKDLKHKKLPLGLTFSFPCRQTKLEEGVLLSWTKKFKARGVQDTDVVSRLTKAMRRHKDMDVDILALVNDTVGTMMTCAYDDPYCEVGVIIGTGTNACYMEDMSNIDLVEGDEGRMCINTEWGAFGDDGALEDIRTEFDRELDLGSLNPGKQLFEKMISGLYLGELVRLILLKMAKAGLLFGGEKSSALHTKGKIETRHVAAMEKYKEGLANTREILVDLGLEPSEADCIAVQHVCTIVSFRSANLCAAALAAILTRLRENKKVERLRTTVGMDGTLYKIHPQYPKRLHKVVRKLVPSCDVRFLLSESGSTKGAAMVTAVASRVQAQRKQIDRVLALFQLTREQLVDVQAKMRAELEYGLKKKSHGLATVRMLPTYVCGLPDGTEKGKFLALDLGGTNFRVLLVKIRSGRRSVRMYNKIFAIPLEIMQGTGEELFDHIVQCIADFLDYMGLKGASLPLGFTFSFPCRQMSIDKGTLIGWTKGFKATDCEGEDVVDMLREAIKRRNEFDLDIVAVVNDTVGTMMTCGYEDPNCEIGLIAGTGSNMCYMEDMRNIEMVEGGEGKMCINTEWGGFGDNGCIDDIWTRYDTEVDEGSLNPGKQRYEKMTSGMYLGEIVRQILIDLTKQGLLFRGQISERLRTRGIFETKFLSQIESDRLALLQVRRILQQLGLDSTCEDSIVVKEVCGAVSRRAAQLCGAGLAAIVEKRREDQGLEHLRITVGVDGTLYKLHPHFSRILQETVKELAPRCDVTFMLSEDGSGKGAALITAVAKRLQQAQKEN
In words: activation of HKDC1 glucose phosphorylation – biochemical, W721R variant, dose response (AID 504730). In kind it is functional.

The next test deals with Nonstructural protein 1 (Influenza A virus, UniProt Q194T2). In kind it is functional, Influenza A virus (A/California/07/2009(H1N1)).
The next test concerns the target T5, Hexokinase-1 (Homo sapiens, UniProt P19367).
T5 sequence (P19367 whole entry): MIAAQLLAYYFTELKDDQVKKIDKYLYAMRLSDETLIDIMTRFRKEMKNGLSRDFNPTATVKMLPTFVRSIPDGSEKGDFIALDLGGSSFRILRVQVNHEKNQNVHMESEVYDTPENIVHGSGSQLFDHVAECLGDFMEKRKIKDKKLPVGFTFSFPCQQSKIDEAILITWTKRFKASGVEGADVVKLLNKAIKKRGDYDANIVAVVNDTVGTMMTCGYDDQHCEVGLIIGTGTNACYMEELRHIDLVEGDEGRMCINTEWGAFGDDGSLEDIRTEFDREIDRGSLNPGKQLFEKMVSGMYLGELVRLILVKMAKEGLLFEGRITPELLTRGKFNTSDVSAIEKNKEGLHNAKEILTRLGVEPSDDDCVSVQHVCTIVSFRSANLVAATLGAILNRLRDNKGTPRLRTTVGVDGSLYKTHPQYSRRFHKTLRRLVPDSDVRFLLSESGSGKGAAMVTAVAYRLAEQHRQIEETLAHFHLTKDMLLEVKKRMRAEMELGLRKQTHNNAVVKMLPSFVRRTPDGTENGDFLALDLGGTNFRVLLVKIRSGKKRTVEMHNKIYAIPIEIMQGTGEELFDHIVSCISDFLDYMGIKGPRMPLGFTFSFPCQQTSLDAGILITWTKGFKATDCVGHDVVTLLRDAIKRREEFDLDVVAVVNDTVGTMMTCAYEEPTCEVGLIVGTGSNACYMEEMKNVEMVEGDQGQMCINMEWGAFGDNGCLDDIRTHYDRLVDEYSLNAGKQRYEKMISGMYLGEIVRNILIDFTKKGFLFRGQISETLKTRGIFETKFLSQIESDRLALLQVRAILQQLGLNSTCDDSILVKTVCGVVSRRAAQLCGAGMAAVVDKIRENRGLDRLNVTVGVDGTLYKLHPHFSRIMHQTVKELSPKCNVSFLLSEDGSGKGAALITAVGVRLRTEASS
In words: HK1 enzyme activation by HKDC1 hits – biochemical, selectivity assay for HKDC1 activator project, dose response (AID 504762). In kind it is functional.

The structures appear in SMILES notation. The source made the active and inactive calls.

Sequence of G-protein coupled receptor 55 (Q9Y2T6 whole entry): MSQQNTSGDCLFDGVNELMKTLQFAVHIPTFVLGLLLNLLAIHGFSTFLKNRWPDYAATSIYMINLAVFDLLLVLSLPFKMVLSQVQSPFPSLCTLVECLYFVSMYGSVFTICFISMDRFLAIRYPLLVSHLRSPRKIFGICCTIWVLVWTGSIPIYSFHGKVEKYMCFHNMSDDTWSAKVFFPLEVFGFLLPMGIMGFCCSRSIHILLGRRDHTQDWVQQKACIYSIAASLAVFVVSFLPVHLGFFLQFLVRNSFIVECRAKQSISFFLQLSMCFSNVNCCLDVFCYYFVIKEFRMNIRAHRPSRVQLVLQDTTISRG
Sequence of Nonstructural protein 1 (Q194T2 whole entry): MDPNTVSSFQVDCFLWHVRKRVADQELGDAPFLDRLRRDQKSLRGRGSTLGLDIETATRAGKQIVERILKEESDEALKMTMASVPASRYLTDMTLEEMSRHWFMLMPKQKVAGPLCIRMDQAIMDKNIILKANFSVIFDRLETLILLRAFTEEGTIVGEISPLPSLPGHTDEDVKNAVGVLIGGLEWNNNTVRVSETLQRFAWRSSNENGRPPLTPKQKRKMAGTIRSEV

As for `CC(C)Cn1c(=O)c(C(=O)Nc2ccncc2)c(O)c2ccccc21`, the EC50 in test [1] is > 120 µM (not active); in [2], 5.54 µM (active); in test [3] it was > 120 µM (not active); in [4], 10.9 µM (active); in the test on Streptococcus, 7.31 µM (active). Besides, the 50% cytotoxic concentration (CC50) in test [5] was 12.4 µM (active); in test [6] it was 19.1 µM (active); in [7] it was 16.5 µM (active). Further, the half-inhibitory concentration (IC50) in “cells” is 16.9 µM (active). The AC50 in [8] is 6.7 µM (active).

With `O=C(Nc1nnc(-c2ccco2)o1)c1ccc([N+](=O)[O-])s1`, the results for the CC50 in [5], in [6] and in [7] were 17.4 µM (active), > 20 µM (active) and 11.6 µM (active), respectively. Moreover, in “cells”, the IC50 is 9.81 µM (active).

With `Nc1ccc(N2CCCCC2)c(S(=O)(=O)Nc2ccccc2Cl)c1`, the IC50 in [9] was 3.53 µM (active).

As to `CCCn1c(NC(=O)c2ccccc2)nc2ccccc21`, the concentration for a half-maximal effect (EC50) is 2.56 µM (active) in test [2], > 150 µM (not active) at Streptokinase A and > 150 µM (not active) with Streptococcus. In addition, the half-maximal cytotoxic concentration (CC50) was 35.9 µM (active) in [5], > 20 µM (active) in [6] and > 20 µM (active) in test [7]. Also, the results for the IC50 in “cells” and in the test with H9c2 were 1.75 µM (active) and > 79 µM (inactive), respectively.

Regarding `O=C(NC12CC3CC(CC(C3)C1)C2)c1ccc(-c2ccc(Cl)cc2)o1`, the IC50 in test [9] was 0.598 µM (active). The EC50 in test [10] is 2.11 µM (active); in test [11], > 60 µM (not active).

For `COc1ccc(C(=O)NC(=S)N(Cc2ccccc2)Cc2ccccc2)cc1`, the half-maximal effective concentration (EC50) in test [2] is 0.883 µM (active); on Streptokinase A, > 150 µM (not active); with Streptococcus, 14.5 µM (active). In [9], the 50% inhibitory concentration (IC50) is 4.36 µM (active).

For the compound `CC(C(=O)Nc1ccccc1)n1sc2ccccc2c1=O` (stereo not given), the half-inhibitory concentration (IC50) on Hexokinase is 8.14 µM (active).

As to `COc1cc(C(=O)CSc2nc(C)cc(C)n2)ccc1O`, in test [12], the IC50 was > 100 µM (inactive).

As to `COc1cccc(NC(=O)Cn2sc3ccccc3c2=O)c1`, the IC50 at Hexokinase is 5.03 µM (active).

In the case of `S=C(NCc1ccccn1)NN=Cc1ccccn1`, the EC50 on Hexokinase HKDC1 was 27.8 µM (inactive); on Hexokinase-1, > 80 µM (inactive). At Nonstructural protein 1, the IC50 was 3.89 µM (active).

Consider `O=C(Nc1cc(Cl)ccc1C(=O)O)c1ccc(Cl)cc1`, for which the IC50 at Hexokinase was > 25 µM (inactive).

`Nn1cnnc1N/N=C/c1cc(Br)cc(Br)c1O`: the EC50 is > 80 µM (inactive) on Hexokinase HKDC1 and 42.3 µM (inactive) on Hexokinase-1. Further, at Nonstructural protein 1, the IC50 is 10.7 µM (active).
